Assay results published in PubChem BioAssay AID1512 (Sanford-Burnham Center for Chemical Genomics, 2009).

Molecular target: placental alkaline phosphatase (ALPP), human
Assay: PLAP enzyme inhibitors, confirmation, biochemical, luminescence (AID 1512)
Conditions: purified PLAP enzyme, luminescent substrate read-out

IC50 [µM] | Compound
5.81 | Cc1cn(CC(=O)c2ccc(O)c(O)c2)cn1
51.2 | Cc1cc(C)nc(NCc2ccc(O)c(O)c2)n1
4.96 | Cc1nc(Br)cn1CC(=O)c1ccc(O)c(O)c1
9.11 | O=C(CNc1nc2ccccc2[nH]1)c1ccc(O)c(O)c1
17.2 | O=C(Cn1ccnc1-c1ccccc1)c1ccc(O)c(O)c1
5.83 | Cc1cc2ncn(CC(=O)c3ccc(O)c(O)c3)c2cc1C

Compound | IC50 [µM]
CC(C)NCC(=O)c1ccc(O)c(O)c1 | 39.3
